{
  "source": "patent US12466812B2",
  "about": "“Pyridinyltriazine derivative having protein kinase inhibitory activity, and pharmaceutical composition for preventing, ameliorating, or treating cancer comprising same” (KOREA INSTITUTE OF SCIENCE AND TECHNOLOGY, priority 2019, dated 2025)",
  "key": {"[1]": {"biological_target": "CDK4 (Homo sapiens, UniProt P11802)", "assay": "Kinase panel biochemical assay", "conditions": "single concentration of 1 μM; panel of 369 kinases; read-out: kinase activity inhibited (%), CDK4", "experimental": "(§1) In order to measure the inhibitory activity (%) against protein kinases of the compounds of the present invention, biochemical assays were performed on a full kinase panel composed of 369 kinases."}, "[2]": {"biological_target": "CDK6 (Homo sapiens, UniProt Q00534)", "assay": "Kinase panel biochemical assay", "conditions": "single concentration of 1 μM; panel of 369 kinases; read-out: kinase activity inhibited (%), CDK6", "experimental": "as §1"}, "[3]": {"biological_target": "CLK2 (Homo sapiens, UniProt P49760)", "assay": "Kinase panel biochemical assay", "conditions": "single concentration of 1 μM; panel of 369 kinases; read-out: kinase activity inhibited (%), CLK2", "experimental": "as §1"}, "[4]": {"biological_target": "DDR1 (Homo sapiens, UniProt Q08345)", "sequence (Q08345 19-913)": "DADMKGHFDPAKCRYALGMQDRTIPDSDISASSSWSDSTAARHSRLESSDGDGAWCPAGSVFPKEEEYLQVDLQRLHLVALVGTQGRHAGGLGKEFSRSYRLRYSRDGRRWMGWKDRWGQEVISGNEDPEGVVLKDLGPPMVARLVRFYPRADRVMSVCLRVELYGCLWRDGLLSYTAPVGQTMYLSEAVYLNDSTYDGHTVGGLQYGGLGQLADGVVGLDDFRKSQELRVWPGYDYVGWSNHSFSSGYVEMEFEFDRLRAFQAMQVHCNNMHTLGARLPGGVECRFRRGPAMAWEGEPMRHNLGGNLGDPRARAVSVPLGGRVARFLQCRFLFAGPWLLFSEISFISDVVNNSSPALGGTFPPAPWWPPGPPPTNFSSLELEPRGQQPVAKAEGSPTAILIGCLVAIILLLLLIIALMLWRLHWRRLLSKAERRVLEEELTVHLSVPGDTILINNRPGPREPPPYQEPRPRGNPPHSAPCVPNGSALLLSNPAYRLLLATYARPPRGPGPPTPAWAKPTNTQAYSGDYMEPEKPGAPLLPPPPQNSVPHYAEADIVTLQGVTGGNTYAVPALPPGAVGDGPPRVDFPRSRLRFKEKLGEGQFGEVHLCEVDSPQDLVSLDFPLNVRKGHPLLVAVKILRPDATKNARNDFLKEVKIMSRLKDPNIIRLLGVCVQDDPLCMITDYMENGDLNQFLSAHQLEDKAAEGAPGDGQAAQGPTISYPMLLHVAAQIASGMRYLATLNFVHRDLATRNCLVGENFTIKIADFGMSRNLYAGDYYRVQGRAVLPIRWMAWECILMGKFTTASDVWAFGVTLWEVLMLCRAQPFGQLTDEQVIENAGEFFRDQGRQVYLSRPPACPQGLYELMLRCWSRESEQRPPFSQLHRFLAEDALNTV", "assay": "Kinase panel biochemical assay", "conditions": "single concentration of 1 μM; panel of 369 kinases; read-out: kinase activity inhibited (%), DDR1", "experimental": "as §1"}, "[5]": {"biological_target": "FGFR2 (Homo sapiens, UniProt P21802)", "sequence (P21802 22-821)": "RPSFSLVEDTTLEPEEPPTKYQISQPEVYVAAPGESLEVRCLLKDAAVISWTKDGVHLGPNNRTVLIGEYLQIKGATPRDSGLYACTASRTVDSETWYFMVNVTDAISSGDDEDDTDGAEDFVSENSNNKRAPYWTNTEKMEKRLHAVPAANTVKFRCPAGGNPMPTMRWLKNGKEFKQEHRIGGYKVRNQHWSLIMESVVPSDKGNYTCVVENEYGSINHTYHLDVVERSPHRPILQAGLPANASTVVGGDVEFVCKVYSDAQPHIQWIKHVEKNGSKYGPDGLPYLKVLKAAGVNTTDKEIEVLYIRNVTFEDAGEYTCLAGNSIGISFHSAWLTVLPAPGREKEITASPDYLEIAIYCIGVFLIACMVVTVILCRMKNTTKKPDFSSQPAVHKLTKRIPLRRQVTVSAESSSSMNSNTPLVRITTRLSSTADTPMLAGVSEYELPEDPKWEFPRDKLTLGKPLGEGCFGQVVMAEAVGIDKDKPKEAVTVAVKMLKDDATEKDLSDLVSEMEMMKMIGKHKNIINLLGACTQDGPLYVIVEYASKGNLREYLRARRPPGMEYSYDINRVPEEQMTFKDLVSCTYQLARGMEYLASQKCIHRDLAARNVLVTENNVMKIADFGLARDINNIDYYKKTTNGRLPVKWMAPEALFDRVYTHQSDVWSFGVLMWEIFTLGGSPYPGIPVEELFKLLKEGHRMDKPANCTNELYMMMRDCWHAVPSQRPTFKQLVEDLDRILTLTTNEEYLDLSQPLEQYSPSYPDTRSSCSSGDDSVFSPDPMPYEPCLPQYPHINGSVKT", "assay": "Kinase panel biochemical assay", "conditions": "single concentration of 1 μM; panel of 369 kinases; read-out: kinase activity inhibited (%), FGFR2", "experimental": "as §1"}, "[6]": {"biological_target": "FGFR3 (Homo sapiens, UniProt P22607)", "assay": "Kinase panel biochemical assay", "conditions": "single concentration of 1 μM; panel of 369 kinases; read-out: kinase activity inhibited (%), FGFR3", "experimental": "as §1"}, "[7]": {"biological_target": "FGFR4 (Homo sapiens, UniProt P22455)", "assay": "Kinase panel biochemical assay", "conditions": "single concentration of 1 μM; panel of 369 kinases; read-out: kinase activity inhibited (%), FGFR4", "experimental": "as §1"}, "[8]": {"biological_target": "FMS (Homo sapiens, UniProt P07333)", "assay": "Kinase panel biochemical assay", "conditions": "single concentration of 1 μM; panel of 369 kinases; read-out: kinase activity inhibited (%), FMS", "experimental": "as §1"}, "[9]": {"biological_target": "IRAK1 (Homo sapiens, UniProt P51617)", "assay": "Kinase panel biochemical assay", "conditions": "single concentration of 1 μM; panel of 369 kinases; read-out: kinase activity inhibited (%), IRAK1", "experimental": "as §1"}, "[10]": {"biological_target": "LCK (Homo sapiens, UniProt P06239)", "assay": "Kinase panel biochemical assay", "conditions": "single concentration of 1 μM; panel of 369 kinases; read-out: kinase activity inhibited (%), LCK", "experimental": "as §1"}, "[11]": {"biological_target": "LYN (Homo sapiens, UniProt P07948)", "assay": "Kinase panel biochemical assay", "conditions": "single concentration of 1 μM; panel of 369 kinases; read-out: kinase activity inhibited (%), LYN", "experimental": "as §1"}, "[12]": {"biological_target": "MAK (Homo sapiens, UniProt P20794)", "sequence (P20794 whole entry)": "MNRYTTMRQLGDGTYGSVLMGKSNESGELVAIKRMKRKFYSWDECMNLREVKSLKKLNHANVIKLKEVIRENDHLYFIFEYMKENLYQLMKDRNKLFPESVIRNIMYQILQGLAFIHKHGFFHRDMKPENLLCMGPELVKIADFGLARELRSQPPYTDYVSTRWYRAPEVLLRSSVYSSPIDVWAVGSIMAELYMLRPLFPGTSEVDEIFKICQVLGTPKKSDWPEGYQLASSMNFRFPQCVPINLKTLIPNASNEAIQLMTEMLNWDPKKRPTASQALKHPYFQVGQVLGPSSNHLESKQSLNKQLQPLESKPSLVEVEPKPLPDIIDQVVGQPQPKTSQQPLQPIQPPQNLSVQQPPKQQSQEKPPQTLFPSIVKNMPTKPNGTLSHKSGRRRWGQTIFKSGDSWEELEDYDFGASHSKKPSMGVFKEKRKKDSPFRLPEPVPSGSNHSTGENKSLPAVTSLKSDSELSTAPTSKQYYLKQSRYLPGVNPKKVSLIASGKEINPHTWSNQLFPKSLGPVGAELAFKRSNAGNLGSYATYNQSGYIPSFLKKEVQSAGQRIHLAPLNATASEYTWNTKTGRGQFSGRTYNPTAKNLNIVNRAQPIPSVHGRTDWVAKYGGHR", "assay": "Kinase panel biochemical assay", "conditions": "single concentration of 1 μM; panel of 369 kinases; read-out: kinase activity inhibited (%), MAK", "experimental": "as §1"}, "[13]": {"biological_target": "MPSK1 (Homo sapiens, UniProt O75716)", "sequence (O75716 whole entry)": "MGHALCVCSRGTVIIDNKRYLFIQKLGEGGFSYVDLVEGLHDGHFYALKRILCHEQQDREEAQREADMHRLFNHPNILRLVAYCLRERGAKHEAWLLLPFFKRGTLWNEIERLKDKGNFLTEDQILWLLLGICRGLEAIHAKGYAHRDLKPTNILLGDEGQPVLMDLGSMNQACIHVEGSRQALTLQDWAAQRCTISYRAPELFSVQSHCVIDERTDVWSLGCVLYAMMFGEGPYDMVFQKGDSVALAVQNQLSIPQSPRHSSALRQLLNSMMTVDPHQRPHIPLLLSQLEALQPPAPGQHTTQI", "assay": "Kinase panel biochemical assay", "conditions": "single concentration of 1 μM; panel of 369 kinases; read-out: kinase activity inhibited (%), MPSK1", "experimental": "as §1"}, "[14]": {"biological_target": "PCTAIRE1 (Homo sapiens, UniProt Q00536)", "sequence (Q00536 whole entry)": "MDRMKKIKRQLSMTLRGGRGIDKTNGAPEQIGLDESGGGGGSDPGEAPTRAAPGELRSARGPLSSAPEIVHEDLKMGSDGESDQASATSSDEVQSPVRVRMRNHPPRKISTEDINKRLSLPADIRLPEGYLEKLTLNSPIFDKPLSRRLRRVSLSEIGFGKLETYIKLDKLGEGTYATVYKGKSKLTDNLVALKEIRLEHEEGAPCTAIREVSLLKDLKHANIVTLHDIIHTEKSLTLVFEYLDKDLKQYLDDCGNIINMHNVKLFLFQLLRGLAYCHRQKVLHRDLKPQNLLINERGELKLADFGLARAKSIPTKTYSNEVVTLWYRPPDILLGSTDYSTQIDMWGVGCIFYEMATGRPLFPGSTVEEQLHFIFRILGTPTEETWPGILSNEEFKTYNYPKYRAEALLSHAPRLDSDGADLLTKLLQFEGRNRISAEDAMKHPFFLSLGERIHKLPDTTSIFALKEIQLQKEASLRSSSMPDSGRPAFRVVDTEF", "sequence (Q8ND76 whole entry partner)": "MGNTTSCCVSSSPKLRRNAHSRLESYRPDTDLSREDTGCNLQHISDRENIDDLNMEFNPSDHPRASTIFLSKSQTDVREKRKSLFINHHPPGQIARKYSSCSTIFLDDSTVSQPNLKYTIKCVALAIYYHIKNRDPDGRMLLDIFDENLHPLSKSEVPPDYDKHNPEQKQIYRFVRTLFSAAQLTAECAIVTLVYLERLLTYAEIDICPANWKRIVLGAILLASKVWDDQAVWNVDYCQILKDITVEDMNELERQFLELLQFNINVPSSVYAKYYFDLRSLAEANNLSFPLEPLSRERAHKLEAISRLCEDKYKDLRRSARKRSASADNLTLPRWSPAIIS", "assay": "Kinase panel biochemical assay", "conditions": "single concentration of 1 μM; panel of 369 kinases; read-out: kinase activity inhibited (%), PCTAIRE1", "experimental": "as §1"}, "[15]": {"biological_target": "PCTAIRE2 (Homo sapiens, UniProt Q00537)", "assay": "Kinase panel biochemical assay", "conditions": "single concentration of 1 μM; panel of 369 kinases; read-out: kinase activity inhibited (%), PCTAIRE2", "experimental": "as §1"}, "[16]": {"biological_target": "PHKg1 (Homo sapiens, UniProt Q16816)", "assay": "Kinase panel biochemical assay", "conditions": "single concentration of 1 μM; panel of 369 kinases; read-out: kinase activity inhibited (%), PHKg1", "experimental": "as §1"}, "[17]": {"biological_target": "ROS (Homo sapiens, UniProt P08922)", "assay": "Kinase panel biochemical assay", "conditions": "single concentration of 1 μM; panel of 369 kinases; read-out: kinase activity inhibited (%), ROS", "experimental": "as §1"}, "[18]": {"biological_target": "TAO2 (Homo sapiens, UniProt Q9UL54)", "sequence (Q9UL54 whole entry)": "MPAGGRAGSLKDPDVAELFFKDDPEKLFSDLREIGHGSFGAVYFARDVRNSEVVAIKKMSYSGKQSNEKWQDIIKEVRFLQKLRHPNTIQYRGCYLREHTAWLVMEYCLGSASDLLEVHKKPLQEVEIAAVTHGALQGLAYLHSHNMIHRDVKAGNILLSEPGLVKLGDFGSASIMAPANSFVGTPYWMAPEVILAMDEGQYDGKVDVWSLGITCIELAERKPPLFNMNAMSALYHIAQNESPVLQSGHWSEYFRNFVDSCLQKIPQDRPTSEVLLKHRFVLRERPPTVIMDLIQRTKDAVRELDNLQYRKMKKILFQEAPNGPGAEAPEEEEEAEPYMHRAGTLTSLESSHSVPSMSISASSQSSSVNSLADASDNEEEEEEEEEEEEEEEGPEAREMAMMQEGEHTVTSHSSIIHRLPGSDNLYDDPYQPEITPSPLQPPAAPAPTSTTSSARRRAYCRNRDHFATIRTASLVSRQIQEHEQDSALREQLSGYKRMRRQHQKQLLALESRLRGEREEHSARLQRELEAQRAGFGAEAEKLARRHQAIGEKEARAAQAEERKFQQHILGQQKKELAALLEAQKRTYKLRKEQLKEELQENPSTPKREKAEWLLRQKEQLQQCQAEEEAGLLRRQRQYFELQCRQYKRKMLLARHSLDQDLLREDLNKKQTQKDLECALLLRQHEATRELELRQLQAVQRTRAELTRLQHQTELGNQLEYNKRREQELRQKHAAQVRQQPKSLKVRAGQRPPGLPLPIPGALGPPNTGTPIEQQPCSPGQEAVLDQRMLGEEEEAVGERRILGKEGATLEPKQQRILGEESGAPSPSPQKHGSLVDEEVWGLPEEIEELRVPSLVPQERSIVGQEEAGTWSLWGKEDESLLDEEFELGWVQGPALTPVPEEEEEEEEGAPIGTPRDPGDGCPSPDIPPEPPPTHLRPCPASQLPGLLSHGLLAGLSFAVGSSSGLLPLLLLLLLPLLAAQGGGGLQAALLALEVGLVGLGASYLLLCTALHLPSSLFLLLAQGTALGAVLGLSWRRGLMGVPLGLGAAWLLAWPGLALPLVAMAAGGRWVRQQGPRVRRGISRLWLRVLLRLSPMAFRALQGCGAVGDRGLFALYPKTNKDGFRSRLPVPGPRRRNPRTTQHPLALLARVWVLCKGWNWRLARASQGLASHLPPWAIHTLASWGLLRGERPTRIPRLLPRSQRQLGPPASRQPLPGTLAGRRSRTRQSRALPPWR", "assay": "Kinase panel biochemical assay", "conditions": "single concentration of 1 μM; panel of 369 kinases; read-out: kinase activity inhibited (%), TAO2", "experimental": "as §1"}, "[19]": {"biological_target": "FGFR2 mutant (N549H) (Homo sapiens, UniProt P21802, N549H)", "sequence (P21802 22-821 N549H)": "as the sequence (P21802 22-821) above, with N528H counted along it", "assay": "Pan-FGFR mutant enzymatic activity", "type": "biochemical", "conditions": "mutant enzyme", "experimental": "(§2) The inhibitory activity against pan-FGFR mutants of the compounds synthesized in Examples 1, 8, 13, 22, and 24 was measured, the inhibitory activity on each of enzymatic activity and cellular activity was evaluated, and the results are shown in Tables 3 and 4 below."}, "[20]": {"biological_target": "FGFR2 mutant (V564F) (Homo sapiens, UniProt P21802, V564F)", "sequence (P21802 22-821 V564F)": "as the sequence (P21802 22-821) above, with V543F counted along it", "assay": "Pan-FGFR mutant enzymatic activity", "type": "biochemical", "conditions": "mutant enzyme", "experimental": "as §2"}, "[21]": {"biological_target": "FGFR3 mutant (K650M) (Homo sapiens, UniProt P22607, K650M)", "assay": "Pan-FGFR mutant enzymatic activity", "type": "biochemical", "conditions": "mutant enzyme", "experimental": "as §2"}, "[22]": {"biological_target": "FGFR3 mutant (V555M) (Homo sapiens, UniProt P22607, V555M)", "assay": "Pan-FGFR mutant enzymatic activity", "type": "biochemical", "conditions": "mutant enzyme", "experimental": "as §2"}, "[23]": {"system": "AN3-CA", "assay": "Pan-FGFR mutant cellular activity", "type": "cell-based", "conditions": "Homo sapiens, mutant cell, Table 4, read-out: GI50, AN3-CA (breast cancer cell line)", "experimental": "as §2"}, "[24]": {"system": "J82 (bladder cancer cell line)", "assay": "Pan-FGFR mutant cellular activity", "type": "cell-based", "conditions": "Table 4", "experimental": "as §2"}, "[25]": {"system": "KMS-11 (myeloma cell line)", "assay": "Pan-FGFR mutant cellular activity", "type": "cell-based", "conditions": "Homo sapiens, Table 4", "experimental": "as §2"}, "[26]": {"system": "UMUC3 (bladder cancer cell line)", "assay": "Pan-FGFR mutant cellular activity", "type": "cell-based", "conditions": "Homo sapiens, Table 4", "experimental": "as §2"}, "[27]": {"system": "UMUC3, bladder cancer cell line overexpressing FGFR1 (xenograft)", "assay": "In-vivo efficacy in animal model transplanted with bladder cancer cell line", "conditions": "UMUC3 xenograft in BALB/C nude mice, oral 20 mpk once a day, compared to control drug BGJ398", "description": "Specifically, 6-7 week old BALB/C nude mice xenografted with UMUC3, which was a bladder cancer cell line overexpressing FGFR1, were used as an animal model. BGJ398 (manufactured by Novartis), a known FGFR inhibitor, was used as a control drug. A mixed solution (pH=4) of 5% N-methylpyrrolidinone (NMP), 6% Solutol, 20% polyethylene glycol (PEG400), and 69′% distilled water was used as a vehicle. At this time, the drug was orally administered at a concentration of 20 mpk (mg/kg) once a day."}},
  "data": [
    {"smiles": "CCN1CCN(c2ccc(Nc3ncnc(-c4cccnc4Nc4c(Cl)c(OC)cc(OC)c4Cl)n3)cc2)CC1", "note": "[Example 1]", "values": [
      {"measurement": "inhibition at 1 µM", "setting": "[1]", "result": "≥ 90", "unit": "%"},
      {"measurement": "inhibition at 1 µM", "setting": "[2]", "result": "≥ 90", "unit": "%"},
      {"measurement": "inhibition at 1 µM", "setting": "[3]", "result": "≥ 90", "unit": "%"},
      {"measurement": "inhibition at 1 µM", "setting": "[4]", "result": "≥ 90", "unit": "%"},
      {"measurement": "inhibition at 1 µM", "setting": "[5]", "result": "≥ 90", "unit": "%"},
      {"measurement": "inhibition at 1 µM", "setting": "[6]", "result": "≥ 90", "unit": "%"},
      {"measurement": "inhibition at 1 µM", "setting": "[7]", "result": "≥ 90", "unit": "%"},
      {"measurement": "inhibition at 1 µM", "setting": "[8]", "result": "≥ 90", "unit": "%"},
      {"measurement": "inhibition at 1 µM", "setting": "[9]", "result": "≥ 90", "unit": "%"},
      {"measurement": "inhibition at 1 µM", "setting": "[10]", "result": "≥ 90", "unit": "%"},
      {"measurement": "inhibition at 1 µM", "setting": "[11]", "result": "≥ 90", "unit": "%"},
      {"measurement": "inhibition at 1 µM", "setting": "[12]", "result": "≥ 90", "unit": "%"},
      {"measurement": "inhibition at 1 µM", "setting": "[13]", "result": "≥ 90", "unit": "%"},
      {"measurement": "inhibition at 1 µM", "setting": "[14]", "result": "≥ 90", "unit": "%"},
      {"measurement": "inhibition at 1 µM", "setting": "[15]", "result": "≥ 90", "unit": "%"},
      {"measurement": "inhibition at 1 µM", "setting": "[16]", "result": "≥ 90", "unit": "%"},
      {"measurement": "inhibition at 1 µM", "setting": "[17]", "result": "≥ 90", "unit": "%"},
      {"measurement": "inhibition at 1 µM", "setting": "[18]", "result": "≥ 90", "unit": "%"},
      {"measurement": "IC50", "setting": "[19]", "result": "< 0.1", "unit": "µM"},
      {"measurement": "IC50", "setting": "[20]", "result": "0.1 to 1", "unit": "µM"},
      {"measurement": "IC50", "setting": "[21]", "result": "< 0.1", "unit": "µM"},
      {"measurement": "IC50", "setting": "[22]", "result": "0.1 to 1", "unit": "µM"},
      {"measurement": "GI50", "setting": "[23]", "result": "< 1", "unit": "µM"},
      {"measurement": "GI50", "setting": "[24]", "result": "1 to 10", "unit": "µM"},
      {"measurement": "GI50", "setting": "[25]", "result": "< 1", "unit": "µM"},
      {"measurement": "GI50", "setting": "[26]", "result": "1 to 10", "unit": "µM"},
      {"measurement": "tumor volume reduction effect", "setting": "[27]", "result": "excellent tumor volume reduction effect"}
    ]}
  ]
}
